Source: ChEMBL document CHEMBL1201862, “PubChem BioAssay data set” (2004)
The source made the active and inactive calls.

How the values were obtained:
[1] = molecular target: Cytochrome P450 3A4 (Homo sapiens, UniProt P08684);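 note: CYP3A4 tested as one member of a cytochrome P450 panel screen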
[2] = molecular target: Cytochrome P450 2C9 (Homo sapiens, UniProt P11712)
[3] = molecular target: T1, Cytochrome P450 1A2 (Homo sapiens, UniProt P05177);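 note: PubChem cytochrome P450 panel assay, CYP1A2 panel member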
T1 sequence (P05177 whole entry): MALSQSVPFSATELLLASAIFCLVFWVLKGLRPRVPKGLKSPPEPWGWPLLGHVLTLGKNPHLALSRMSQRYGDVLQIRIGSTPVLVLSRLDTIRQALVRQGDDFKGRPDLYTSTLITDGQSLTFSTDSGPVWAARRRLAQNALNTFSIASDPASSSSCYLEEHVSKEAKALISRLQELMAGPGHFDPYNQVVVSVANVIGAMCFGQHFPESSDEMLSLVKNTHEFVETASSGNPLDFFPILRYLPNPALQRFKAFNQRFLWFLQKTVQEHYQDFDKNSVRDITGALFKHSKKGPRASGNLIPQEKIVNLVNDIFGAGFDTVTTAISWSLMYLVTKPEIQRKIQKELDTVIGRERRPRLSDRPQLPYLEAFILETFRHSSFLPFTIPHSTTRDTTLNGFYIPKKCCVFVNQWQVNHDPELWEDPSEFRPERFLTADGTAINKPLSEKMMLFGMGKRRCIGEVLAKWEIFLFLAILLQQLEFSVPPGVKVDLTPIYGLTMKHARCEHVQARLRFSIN

[4] = Luminescence Cell-Based Dose Retest to Confirm Inhibitors of Cancer Stem Cells. [Related pubchem assays (depositor defined):AID2717, AID2721]; type: functional; conditions: Homo sapiens
[5] = test system: Streptococcus sp. 'group A'; experiment: Streptococcus pyogenes SK(-)GAS viability under kanamycin – luminescence, BacTiterGlo, confirmation, counter-screen for streptokinase expression inhibitor project, dose response (AID 1900); type: functional, organism-based
[6] = molecular target: T2, Streptokinase A (Streptococcus pyogenes serotype M1, UniProt P10520); experiment: viability-normalized secreted streptokinase activity reduction – plasminogen activation absorbance, OD405, dose response (AID 1914); type: functional, Streptococcus pyogenes M1 GAS;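 note: secreted streptokinase activity via plasminogen activation per viability signal from cell pellet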
T2 sequence (P10520 whole entry): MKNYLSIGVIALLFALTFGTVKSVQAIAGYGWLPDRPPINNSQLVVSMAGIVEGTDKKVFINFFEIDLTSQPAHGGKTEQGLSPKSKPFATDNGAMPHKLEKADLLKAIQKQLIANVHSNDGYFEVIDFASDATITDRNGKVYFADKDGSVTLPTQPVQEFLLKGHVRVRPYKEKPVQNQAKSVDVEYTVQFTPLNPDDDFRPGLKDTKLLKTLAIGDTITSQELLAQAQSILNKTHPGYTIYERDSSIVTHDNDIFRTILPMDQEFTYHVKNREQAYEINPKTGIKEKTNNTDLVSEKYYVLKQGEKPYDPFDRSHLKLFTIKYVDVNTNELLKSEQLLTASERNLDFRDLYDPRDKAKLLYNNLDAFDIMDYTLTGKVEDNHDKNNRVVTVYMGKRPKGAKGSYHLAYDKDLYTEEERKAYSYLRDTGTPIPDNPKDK

[7] = test system: Streptococcus; experiment: GAS UMAA2166 growth inhibition – luminescence, BacTiterGlo, counter-screen for streptokinase expression inhibitor project, dose response (AID 1915); type: functional, organism-based;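 note: potency for reduction of bacterial viability or growth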
[8] = molecular target: Cytochrome P450 2C19 (Homo sapiens, UniProt P33261); experiment: Cytochrome panel assay with activity outcomes. Panel member name: p450-cyp2c19 Compounds with AC50 equal or less than 10 uM are considered active; type: functional; conditions: read-out: AC50
[9] = molecular target: Cytochrome P450 2D6 (Homo sapiens, UniProt P10635);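 note: CYP2D6 member of a cytochrome P450 panel assay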
[10] = molecular target: T3, Heat shock factor protein 1 (Mus musculus, UniProt P38532); experiment: decrease of HSF1-responsive luciferase luminescence – cell-based, NIH3T3, dose retest, confirmation (AID 2382); type: functional;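 note: NIH3T3 fibroblasts with HSF1-driven luciferase reporter stressed by proteasome inhibitor MG132; luminescence from HSF1-driven luciferase expression after 8 hours of MG132 stress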
T3 sequence (P38532 whole entry): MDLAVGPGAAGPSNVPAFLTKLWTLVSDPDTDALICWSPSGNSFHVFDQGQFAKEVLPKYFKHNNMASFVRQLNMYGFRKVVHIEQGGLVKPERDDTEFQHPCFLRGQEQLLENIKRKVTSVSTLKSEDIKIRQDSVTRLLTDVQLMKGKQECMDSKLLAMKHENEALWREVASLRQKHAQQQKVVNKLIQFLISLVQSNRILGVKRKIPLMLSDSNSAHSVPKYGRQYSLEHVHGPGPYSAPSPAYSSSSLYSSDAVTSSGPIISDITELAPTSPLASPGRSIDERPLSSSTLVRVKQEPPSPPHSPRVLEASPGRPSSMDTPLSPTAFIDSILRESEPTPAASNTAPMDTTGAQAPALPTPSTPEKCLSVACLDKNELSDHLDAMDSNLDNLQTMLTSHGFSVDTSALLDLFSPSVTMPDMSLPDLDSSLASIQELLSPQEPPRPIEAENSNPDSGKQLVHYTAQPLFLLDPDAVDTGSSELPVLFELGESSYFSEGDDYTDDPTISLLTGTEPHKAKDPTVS

Chain of Cytochrome P450 2D6 (P10635 whole entry): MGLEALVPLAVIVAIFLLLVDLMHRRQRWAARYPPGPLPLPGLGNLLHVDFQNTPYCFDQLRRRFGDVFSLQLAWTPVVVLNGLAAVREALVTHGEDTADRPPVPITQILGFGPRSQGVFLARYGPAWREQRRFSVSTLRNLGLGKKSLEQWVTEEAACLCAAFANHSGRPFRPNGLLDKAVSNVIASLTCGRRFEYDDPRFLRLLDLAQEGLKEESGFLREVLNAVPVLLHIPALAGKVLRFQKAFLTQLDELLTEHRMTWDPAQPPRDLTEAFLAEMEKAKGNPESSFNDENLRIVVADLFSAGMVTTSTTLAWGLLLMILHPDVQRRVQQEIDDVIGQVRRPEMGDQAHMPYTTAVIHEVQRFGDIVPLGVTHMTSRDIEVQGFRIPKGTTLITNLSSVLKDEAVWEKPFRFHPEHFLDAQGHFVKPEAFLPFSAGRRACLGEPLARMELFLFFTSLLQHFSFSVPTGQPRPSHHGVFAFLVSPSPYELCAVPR
Chain of Cytochrome P450 2C9 (P11712 whole entry): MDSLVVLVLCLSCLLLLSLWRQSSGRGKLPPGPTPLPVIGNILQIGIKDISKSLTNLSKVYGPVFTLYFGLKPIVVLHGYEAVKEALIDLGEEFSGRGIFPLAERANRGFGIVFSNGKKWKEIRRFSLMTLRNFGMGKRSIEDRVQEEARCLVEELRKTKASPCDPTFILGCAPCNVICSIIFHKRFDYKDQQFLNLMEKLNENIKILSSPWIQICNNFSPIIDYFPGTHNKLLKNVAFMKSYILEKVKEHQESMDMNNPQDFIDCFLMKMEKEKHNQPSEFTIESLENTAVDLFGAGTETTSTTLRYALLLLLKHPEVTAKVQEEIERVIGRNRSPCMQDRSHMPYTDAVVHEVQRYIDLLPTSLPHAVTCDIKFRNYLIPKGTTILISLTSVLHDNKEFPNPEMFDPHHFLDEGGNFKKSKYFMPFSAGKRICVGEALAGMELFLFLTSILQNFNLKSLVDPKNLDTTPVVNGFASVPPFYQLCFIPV
Chain of Cytochrome P450 2C19 (P33261 whole entry): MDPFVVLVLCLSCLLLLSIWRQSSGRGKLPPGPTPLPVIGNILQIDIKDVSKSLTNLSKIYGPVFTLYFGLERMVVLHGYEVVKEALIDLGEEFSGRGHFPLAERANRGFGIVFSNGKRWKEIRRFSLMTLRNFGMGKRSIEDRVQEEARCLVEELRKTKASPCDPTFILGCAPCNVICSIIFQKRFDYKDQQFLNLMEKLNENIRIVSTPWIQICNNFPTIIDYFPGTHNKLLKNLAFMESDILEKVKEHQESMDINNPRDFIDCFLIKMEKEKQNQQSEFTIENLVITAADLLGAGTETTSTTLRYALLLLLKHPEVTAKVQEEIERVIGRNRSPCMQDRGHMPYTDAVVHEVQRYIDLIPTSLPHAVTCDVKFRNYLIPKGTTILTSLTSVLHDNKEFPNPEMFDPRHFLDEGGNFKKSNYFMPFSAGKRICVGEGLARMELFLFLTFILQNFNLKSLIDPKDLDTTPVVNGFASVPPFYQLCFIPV
Chain of Cytochrome P450 3A4 (P08684 whole entry): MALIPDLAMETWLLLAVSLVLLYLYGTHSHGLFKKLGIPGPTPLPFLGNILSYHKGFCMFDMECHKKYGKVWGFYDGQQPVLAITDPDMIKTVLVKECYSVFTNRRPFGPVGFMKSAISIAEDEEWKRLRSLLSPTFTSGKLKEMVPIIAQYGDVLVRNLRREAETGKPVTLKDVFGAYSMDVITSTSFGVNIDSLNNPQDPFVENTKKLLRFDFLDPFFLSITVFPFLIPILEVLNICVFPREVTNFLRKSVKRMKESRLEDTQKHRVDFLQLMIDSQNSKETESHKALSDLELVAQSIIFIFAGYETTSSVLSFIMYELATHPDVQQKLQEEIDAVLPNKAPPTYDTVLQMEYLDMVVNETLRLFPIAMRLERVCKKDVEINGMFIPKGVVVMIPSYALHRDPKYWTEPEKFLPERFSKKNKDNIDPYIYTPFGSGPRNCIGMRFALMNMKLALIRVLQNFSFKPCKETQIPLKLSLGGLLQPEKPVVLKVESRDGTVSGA

## C[C@]1(C2CCCC2)Cc2cc(OCC(=O)O)c(Cl)c(Cl)c2C1=O
[1]
  AC50: 12.6 µM (inconclusive)
[2]
  AC50: 39.8 µM (inconclusive)

## COc1ccccc1-c1nccc(NCc2cnc(C)cn2)n1
[1]
  AC50: 39.8 µM (inconclusive)

## CCNc1ncc2nc(-c3ccc(Cl)cc3)c(=O)n(-c3ccccc3)c2n1
[3]
  AC50: 1 µM (inconclusive)

## COc1ccc(/C=C2\C(=O)c3ccccc3OC2c2ccccc2)cc1 (centres undefined)
[4]
  AC50: 1.12 µM (active)

## Cl/C(=N\c1cccc2ccccc12)N(c1ccccc1)c1ccccc1
[3]
  AC50: 1 µM (inconclusive)
[1]
  AC50: 3.98 µM (inconclusive)

## CCCCNC(=O)c1cn(CC(C)C)c(=O)c2c1c1ccccc1n2C
[5]
  EC50: 15.5 µM (active)
[6]
  EC50: > 150 µM (not active)
[7]
  EC50: > 150 µM (not active)

## COC(=O)[C@@]1(Cc2ccccc2)[C@H]2c3cc(C(=O)N4CCCC4)n(Cc4c(CO)ncc(C)c4O)c3C[C@H]2CN1C(=O)c1ccccc1
[3]
  AC50: 5.01 µM (inconclusive)

## O=C(Nc1ccc(Cl)cc1C(=O)c1ccccc1)c1ccco1
[1]
  AC50: 22.4 µM (inconclusive)
[2]
  AC50: 3.98 µM (inconclusive)

## CCC12C=CCN3CCC4(c5cc(Br)c(OC)cc5N(C)C4C(O)(C(=O)OC)C1OC(C)=O)C32 (centres undefined)
[8]
  AC50: 11.2 µM (inconclusive)
[1]
  AC50: 39.8 µM (inconclusive)
[2]
  AC50: 22.4 µM (inconclusive)

## OCCCNc1nc(-c2ccccc2)c2cc(Br)ccc2n1
[4]
  AC50: 24 µM (active)

## O=C(c1ccc(CSc2ccccc2)cc1)N1CCN(c2ccccc2)CC1
[4]
  AC50: 3.26 µM (active)

## CN1CCN(c2ncc3nc(-c4cccs4)c(=O)n(C[C@H]4CCCO4)c3n2)CC1
[1]
  AC50: 10 µM (inconclusive)

## Oc1c(C(O)(c2ccccc2)c2ccc3ccccc3c2O)ccc2ccccc12
[9]
  AC50: 3.98 µM (inconclusive)
[3]
  AC50: 1 µM (inconclusive)

## O=C1C2C(c3ccccc3)CC=CC2[C@H](c2ccc(C(F)(F)F)cc2)N1Cc1ccccc1 (some centres undefined)
[4]
  AC50: 5.21 µM (active)

## CC(=O)Nc1cccc(C(=O)OC(C(=O)c2ccc(C)c(C)c2)c2ccccc2)c1 (centres undefined)
[9]
  AC50: 17.8 µM (inconclusive)
[3]
  AC50: 22.4 µM (inconclusive)

## CC1(C)Cc2c(sc3c2C(=O)N(c2ccccc2)C2=NCCN23)CS1
[3]
  AC50: 22.4 µM (inconclusive)

## CC(C)(C)N(Cc1ccccc1)C(=O)c1cc2ccccc2o1
[4]
  AC50: 0.407 µM (active)

## CCOC(=O)c1sc2c(c1C)c(=O)c(C(=O)OCC)cn2CC
[3]
  AC50: 25.1 µM (inconclusive)

## Cc1cc2nc(CSc3ccccc3)cc(O)n2n1
[6]
  EC50: > 150 µM (not active)

## CC(C)(C)c1cc(C(=O)Nc2ccc(F)cc2)n(Cc2ccc(F)cc2)n1
[5]
  EC50: 7.02 µM (active)
[6]
  EC50: 2.85 µM (active)
[7]
  EC50: 10.3 µM (active)

## O=C(Nc1ccc2c(c1)OCO2)c1cc(-c2cccc(O)c2)on1
[4]
  AC50: 0.715 µM (active)

## NNC(=O)c1nn(-c2ccc(Cl)cc2)ccc1=O
[1]
  AC50: 25.1 µM (inconclusive)

## COc1ccc(CNCC(O)(c2ccc(Cl)cc2)c2ccc(Cl)cc2)cc1
[5]
  EC50: 3.01 µM (active)
[6]
  EC50: 19.7 µM (active)
[7]
  EC50: 17.9 µM (active)

## COc1ccc(-c2cc([C@H]3[C@@H]4C=CCC[C@@]4(C)C(=O)N3Cc3ccccc3)ccc2F)cc1OC
[4]
  AC50: 3.92 µM (active)

## NC(=O)c1cc(C(=O)Cc2ccccc2)c[nH]1
[5]
  EC50: 2.27 µM (active)
[6]
  EC50: 107 µM (active)
[7]
  EC50: > 150 µM (not active)

## COc1ccc(NC(=O)CSc2nncn2C)c([N+](=O)[O-])c1
[1]
  AC50: 22.4 µM (inconclusive)
[2]
  AC50: 14.1 µM (inconclusive)

## CCCC(c1nnnn1CC1CCCO1)N1CCN(c2cc(Cl)ccc2C)CC1 (centres undefined)
[4]
  AC50: 3.53 µM (active)

## COC(=O)c1ccc(CN(c2ccc(C(=O)O)c(O)c2)S(=O)(=O)c2ccc(Cl)c([N+](=O)[O-])c2)cc1
[5]
  EC50: 1.48 µM (active)
[7]
  EC50: 5.96 µM (active)
[4]
  AC50: 4.38 µM (active)

## CC(=O)NCCNc1ncnc2ccc(-c3ccc(C(=O)N(C)C)cc3)cc12
[3]
  AC50: 25.1 µM (inconclusive)

## O=C1[C@H]2[C@H]3[C@H](O)[C@H](O)C/C(=N/OC[C@@H](O)COCc4ccco4)[C@H]3CC[C@@H]2C(=O)N1C1CCCCC1
[1]
  AC50: 3.98 µM (inconclusive)

## O=C(CSc1nnc(CNc2ccc(F)cc2)o1)N1c2ccccc2Sc2ccccc21
[3]
  AC50: 10 µM (inconclusive)

## COc1cccc(-c2sc3ccc(OC)cc3c2C#CC2(O)CCCCC2)c1
[4]
  AC50: 3.74 µM (active)

## COc1cc(C(=O)NC(=S)Nc2ccc(Cc3ccncc3)cc2)cc(OC)c1OC
[5]
  EC50: 2.84 µM (active)
[6]
  EC50: > 150 µM (not active)
[7]
  EC50: 25 µM (active)

## CC1CCCC(NC(=O)C2CCN(S(=O)(=O)N3CCC4(CC3)OCCO4)CC2)C1C (centres undefined)
[8]
  AC50: 6.31 µM (inconclusive)
[1]
  AC50: 14.1 µM (inconclusive)
[2]
  AC50: 39.8 µM (inconclusive)

## Cc1ccccc1NS(=O)(=O)c1ccc2ncc(C(=O)N(C)Cc3ccco3)c(O)c2c1
[9]
  AC50: 17.8 µM (inconclusive)
[1]
  AC50: 0.794 µM (inconclusive)

## Cc1cccc(NC(=S)c2nc3ccccc3s2)c1
[9]
  AC50: 35.5 µM (inconclusive)
[1]
  AC50: 3.98 µM (inconclusive)

## CCCCOC(=O)CSCC(=O)Nc1cc(C)on1
[10]
  EC50: > 195 µM (not active)
[3]
  AC50: 25.1 µM (inconclusive)
[2]
  AC50: 2.51 µM (inconclusive)

## COc1ccccc1N1CCN(C(=O)/C=C/c2c(Cl)nc3ccccn23)CC1
[5]
  EC50: 1.25 µM (active)
[6]
  EC50: > 150 µM (not active)
[7]
  EC50: 12.7 µM (active)

## Cc1ccccc1C(=O)Oc1cccc(Nc2ncnc3ccccc23)c1
[5]
  EC50: 5.76 µM (active)
[6]
  EC50: 34.6 µM (active)
[7]
  EC50: > 150 µM (not active)

## CCOc1ccc(-c2nnc3ccc(SCC(=O)NCc4ccco4)nn23)cc1
[8]
  AC50: 1 µM (inconclusive)
[3]
  AC50: 15.8 µM (inconclusive)
[1]
  AC50: 7.94 µM (inconclusive)

## Oc1nc(Nc2cccc(Cl)c2)sc1/C=C1\C=Nc2ccccc21
[4]
  AC50: 1.91 µM (active)

## CCc1nc(N2CCN(Cc3ccc4c(c3)OCO4)CC2)c2oc3ccccc3c2n1
[4]
  AC50: 2.71 µM (active)

## CC(C)Sc1cc(N2CCOCC2)nc(-c2ccc(Cl)cc2)n1
[8]
  AC50: 11.2 µM (inconclusive)
[1]
  AC50: 17.8 µM (inconclusive)
[2]
  AC50: 11.2 µM (inconclusive)

## Cc1ccc(CCN2CC(C(=O)N3CCC4(CC3)OCCO4)CC2=O)cc1 (centres undefined)
[1]
  AC50: 17.8 µM (inconclusive)
[2]
  AC50: 12.6 µM (inconclusive)

## COc1ccc(/C=N/NC(=O)CCc2ccccc2)cc1O
[8]
  AC50: 15.8 µM (inconclusive)
[1]
  AC50: 22.4 µM (inconclusive)

## Cc1ccc(/N=C/c2cc(C)n(C3CCCC3)c2C)cc1
[1]
  AC50: 20 µM (inconclusive)

## CO/N=C/C(=C\Nc1ccccc1)c1ncc(C(F)(F)F)cc1Cl
[1]
  AC50: 22.4 µM (inconclusive)

## O=C(O)[C@H]1CN(CCCP(=O)(O)O)CCN1
[3]
  AC50: 39.8 µM (inconclusive)
